Laboratory results from patent publication US9822164B2, “Labelling agent, and composition for labelling a protein, method for labelling a protein, and method for detecting a protein” (KOREA INSTITUTE OF SCIENCE AND TECHNOLOGY, priority 2014, dated 2017).

target: T1, lysozyme (Gallus gallus, UniProt P00698); assay: Labelling (photocrosslinking) of protein by UV irradiation, gel electrophoresis, fluorescence intensity; assay type: binding; details: 5 minutes after UV irradiation, about 254 nm; FIG. 1d
T1 construct: purchased Sigma Aldrich
T1 sequence (P00698 19-147): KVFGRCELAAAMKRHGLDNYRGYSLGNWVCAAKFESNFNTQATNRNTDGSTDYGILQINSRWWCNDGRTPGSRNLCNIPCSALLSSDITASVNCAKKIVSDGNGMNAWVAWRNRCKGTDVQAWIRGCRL
Description: (§1) Proteins of BSA, HSA, peroxidase, and lysozyme are treated with the compounds synthesized or purchased in Example 1, and irradiated with UV at about 254 nm. Then, binding of the compound and the protein over UV irradiation time is examined by gel electrophoresis. A gel electrophoresis apparatus (Bio-Rad) and a small vertical gel electrophoresis apparatus are connected and used for gel electrophoresis. For experiment, a 12% SDS gel and a running buffer are directly prepared as follows and used. 12% SDS gel is prepared by mixing 7.9 ml of H2O, 6.5 ml of pH […] Tris-HCl buffer, 10 ml of 30% Acryl amide, 250 μl of 10% SDS gel, 250 μl of APS, and 10 μl of TMEDE. 1× running buffer is prepared by mixing 200 ml of 10×TGS buffer and 1800 ml of H2O.
(§2) Proteins of BSA, HAS, peroxidase, and lysozyme are purchased from Sigma Aldrich. Fluorescence intensity of the labeled protein is measured using BIO-RAD ChemiDoc, and Blue Epi and Green Epi are used as a light source, and 530 nm emission (28 nm bandwidth) and 650 nm emission (50 nm bandwidth) filters are used according to fluorescence wavelength.
(§3) Y axis of FIGS. 1a through 1d represents fluorescence intensity, indicating photocrosslinking degree of the compound and protein.

| Labeling of lysozyme (fluorescence intensity, photocrosslinking degree) | Compound |
| --- | --- |
| significant labeling | Oc1ccccc1-c1nc2ccccc2[nH]1 [HBI, 2-(2-hydroxyphenyl)benzimidazole] |
| significant labeling | CCN(CC)c1ccc2nc(-c3ccccc3O)[nH]c2c1 [HDBI, 2-(2-hydroxyphenyl)-5-(diethylamino)benzimidazole] |

target: T2, BSA (Bos taurus, UniProt P02769); assay: as above; assay type: binding; details: 5 minutes after UV irradiation, about 254 nm; FIG. 1a
T2 construct: purchased Sigma Aldrich
T2 sequence (P02769 25-607): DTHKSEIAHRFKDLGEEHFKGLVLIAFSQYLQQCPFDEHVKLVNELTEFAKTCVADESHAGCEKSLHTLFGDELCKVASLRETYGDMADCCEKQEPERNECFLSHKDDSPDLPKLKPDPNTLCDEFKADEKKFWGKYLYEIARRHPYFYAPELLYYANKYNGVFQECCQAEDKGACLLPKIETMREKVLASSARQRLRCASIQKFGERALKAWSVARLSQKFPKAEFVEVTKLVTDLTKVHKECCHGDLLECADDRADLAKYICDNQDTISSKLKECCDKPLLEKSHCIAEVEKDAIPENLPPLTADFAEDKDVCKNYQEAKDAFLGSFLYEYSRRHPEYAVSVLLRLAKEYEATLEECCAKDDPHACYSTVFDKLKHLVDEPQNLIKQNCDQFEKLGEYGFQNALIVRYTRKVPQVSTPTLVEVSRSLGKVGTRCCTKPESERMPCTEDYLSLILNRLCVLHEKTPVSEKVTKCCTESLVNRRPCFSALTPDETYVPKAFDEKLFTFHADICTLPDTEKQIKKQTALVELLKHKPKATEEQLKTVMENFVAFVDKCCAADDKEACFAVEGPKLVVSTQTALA
Description: as §1, §2, §3

| Labeling of BSA (fluorescence intensity, photocrosslinking degree) | Compound |
| --- | --- |
| significant labeling | Oc1ccccc1-c1nc2ccccc2[nH]1 [HBI, 2-(2-hydroxyphenyl)benzimidazole] |
| significant labeling | Oc1ccccc1-c1nc2ccccc2o1 [HBO, 2-(2-hydroxyphenyl)benzoxazole] |
| significant labeling | CCN(CC)c1ccc2nc(-c3ccccc3O)[nH]c2c1 [HDBI, 2-(2-hydroxyphenyl)-5-(diethylamino)benzimidazole] |

target: T3, HSA (Homo sapiens, UniProt P02768); assay: as above; assay type: binding; details: 5 minutes after UV irradiation, about 254 nm; FIG. 1b
T3 construct: purchased Sigma Aldrich
T3 sequence (P02768 25-609): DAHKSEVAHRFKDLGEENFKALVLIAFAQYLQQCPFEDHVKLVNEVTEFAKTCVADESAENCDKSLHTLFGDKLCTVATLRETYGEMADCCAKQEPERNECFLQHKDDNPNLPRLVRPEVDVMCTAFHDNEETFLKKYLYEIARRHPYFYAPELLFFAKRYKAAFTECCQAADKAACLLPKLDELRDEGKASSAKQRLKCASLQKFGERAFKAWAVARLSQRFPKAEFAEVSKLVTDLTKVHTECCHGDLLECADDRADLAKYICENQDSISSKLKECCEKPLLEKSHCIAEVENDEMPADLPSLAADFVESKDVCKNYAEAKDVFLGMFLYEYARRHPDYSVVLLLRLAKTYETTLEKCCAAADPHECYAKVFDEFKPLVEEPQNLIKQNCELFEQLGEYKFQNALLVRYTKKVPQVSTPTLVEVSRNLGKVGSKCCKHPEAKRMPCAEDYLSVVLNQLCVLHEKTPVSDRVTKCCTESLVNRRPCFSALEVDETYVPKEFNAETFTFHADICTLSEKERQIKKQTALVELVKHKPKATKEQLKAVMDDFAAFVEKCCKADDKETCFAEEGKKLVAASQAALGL
Description: as §1, §2, §3

| Labeling of HSA (fluorescence intensity, photocrosslinking degree) | Compound |
| --- | --- |
| significant labeling | Nc1ccccc1-c1nc2ccccc2[nH]1 [ABI, 2-(2-Aminophenyl)-1H-benzimidazole] |
| significant labeling | Oc1ccccc1-c1nc2ccccc2[nH]1 [HBI, 2-(2-hydroxyphenyl)benzimidazole] |
| significant labeling | CCN(CC)c1ccc2nc(-c3ccccc3O)[nH]c2c1 [HDBI, 2-(2-hydroxyphenyl)-5-(diethylamino)benzimidazole] |

tested on: peroxidase; assay: as above; assay type: binding; details: 5 minutes after UV irradiation, about 254 nm; FIG. 1c
Description: as §1, §2, §3

| Labeling of peroxidase (fluorescence intensity, photocrosslinking degree) | Compound |
| --- | --- |
| significant labeling | Nc1ccccc1-c1nc2ccccc2[nH]1 [ABI, 2-(2-Aminophenyl)-1H-benzimidazole] |
| significant labeling | Oc1ccccc1-c1nc2ccccc2[nH]1 [HBI, 2-(2-hydroxyphenyl)benzimidazole] |
| significant labeling | CCN(CC)c1ccc2nc(-c3ccccc3O)[nH]c2c1 [HDBI, 2-(2-hydroxyphenyl)-5-(diethylamino)benzimidazole] |

tested on: BSA, HSA, peroxidase, and lysozyme; assay: Protein labelling, results of FIGS. 1a to 1d taken together; assay type: binding; details: not given
Description: as §1, §2
Y axis of FIGS. 1a through 1d represents fluorescence intensity, indicating photocrosslinking degree of the compound and protein. […]

| Photocrosslinking property, comparison among the compounds | Compound |
| --- | --- |
| highest photocrosslinking property | Oc1ccccc1-c1nc2ccccc2[nH]1 [HBI, 2-(2-hydroxyphenyl)benzimidazole] |

tested on: not listed separately; assay: Maximum values of absorbance and fluorescence of the compounds in DMSO; assay type: physicochemical; details: not given
Description: Experimental device, analyzer and reagents used in Examples and comparative experiments are the same as follows. FT-NMR spectroscopy is performed using Bruker Avance 400, and LC/MS analysis is performed using Thermo Dionex ultimate 3000/Velos pro on ion-trap mass spectrometer (ITMS). All reagents purchased from Aldrich are used without additional purification. Whatman filter papers having a diameter of 125 mm are used. Of derivatives used in experiments, 2-(2-Aminophenyl)-1H-benzimidazole) (ABI) is purchased from Aldrich, and NMR analysis and fluorescence/absorbance values are recorded by the method known in the art. […]

| Compound | Absorbance (maximum value) [nm] | Fluorescence (maximum value) [nm] |
| --- | --- | --- |
| Nc1ccccc1-c1nc2ccccc2[nH]1 [ABI, 2-(2-Aminophenyl)-1H-benzimidazole] | 360 | 415 |
| Oc1ccccc1-c1nc2ccccc2[nH]1 [HBI, 2-(2-hydroxyphenyl)benzimidazole] | 320 | 463 |
| Oc1ccccc1-c1nc2ccccc2o1 [HBO, 2-(2-hydroxyphenyl)benzoxazole] | 380 | 480 |

The next lines start with the values.

| Absorbance (maximum value) [nm] | Fluorescence (maximum value) [nm] | Compound |
| --- | --- | --- |
| 350 | 515 | Oc1ccccc1-c1nc2ccccc2s1 [HBT, 2-(2-hydroxyphenyl)benzothiazole] |
| 360 | 448 | CCN(CC)c1ccc2nc(-c3ccccc3O)[nH]c2c1 [HDBI, 2-(2-hydroxyphenyl)-5-(diethylamino)benzimidazole] |
